Data as given in US7868026B2, “Therapeutic compounds” (Pfizer Inc., priority 2005, dated 2011).
Like-named read-outs stand apart in the source and are kept apart here.

Assays:
Type in all cases: biochemical
[1] = target: T1, CYP3A4 (Homo sapiens, UniProt P08684); assay: Determination of IC50 against CYP3A4 by measurement of inhibition of midazolam metabolism (human liver microsomes, 1-hydroxymidazolam by LC-MS/MS); design: 0.1 mg/mL human liver microsomes; details: 2 μM midazolam, 0.1 mg/mL human liver microsomes
T1 sequence (P08684 whole entry): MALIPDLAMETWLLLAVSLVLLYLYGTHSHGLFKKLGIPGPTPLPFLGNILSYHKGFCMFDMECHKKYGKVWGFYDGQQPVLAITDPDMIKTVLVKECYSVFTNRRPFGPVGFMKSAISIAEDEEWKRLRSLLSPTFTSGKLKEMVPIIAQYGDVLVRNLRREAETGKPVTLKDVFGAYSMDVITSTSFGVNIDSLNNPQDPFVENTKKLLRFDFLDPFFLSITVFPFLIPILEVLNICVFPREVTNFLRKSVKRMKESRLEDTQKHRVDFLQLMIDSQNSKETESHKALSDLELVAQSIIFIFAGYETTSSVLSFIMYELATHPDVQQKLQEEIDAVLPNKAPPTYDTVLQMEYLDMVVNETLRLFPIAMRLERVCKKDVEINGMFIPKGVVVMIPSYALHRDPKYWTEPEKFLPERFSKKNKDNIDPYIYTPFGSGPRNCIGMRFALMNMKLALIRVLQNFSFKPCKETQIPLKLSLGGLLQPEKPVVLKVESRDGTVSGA
Protocol: 3. Determination of IC50 Against CYP3A4 by Measurement of Inhibition of Midazolam Metabolism
(§1) This assay was performed using a standard 96 well plate design. […] The incubation substrate mix contains 2 μM midazolam, 0.1 mg/mL human liver microsomes, 1 mM NADPH, and potassium phosphate buffer (100 mM, pH 7.4). Quantitation of metabolite peak area ratio against internal standard is determined by LC-MS/MS analysis. The production of 1-hydroxymidazolam from midazolam metabolism is determined after incubation for eight minutes by comparison to a standard curve generated for the metabolite.
(§2) Samples were analyzed in the MRM mode using a Sciex API 3000 mass spectrometer (Applied Biosystems, Foster City, Calif.) with a Paradigm MS4 binary pump (Michrom BioResources Inc., Auburn, Calif.) and a LEAP CTC PAL autosampler (LEAP Technologies, Carrboro, N.C.). A Phenomenex Synergi, 4μ, Polar-RP, 10×2.0 mm column (Phenomenex, Torrance, Calif.) was used for separation with a mobile phase composition of: 0.1% formic acid in water (A) and: 0.1% formic acid in methanol (B). The following gradient was used: […]
(§3) The sample injection volume was 10 μL and flow was split post-column with 0.4 mL/min going to the mass spectrometer. Analysis was performed using the following API 3000 mass spectrometer settings: […]

[2] = target: T1, CYP3A4; assay: Determination of compound Kiapp against recombinant CYP3A4 enzyme (BFC fluorescent substrate)
Protocol: 1. Determination of compound Kiapp
A determination of the Kiapp of the compounds of the invention against recombinant CYP3A4 enzyme was performed as follows. The assay was performed in a 100 mM sodium phosphate buffer pH 7.0, 5 mM TCEP and containing 2% dimethylformamide (final concentration) upon addition of substrate and inhibitor. A typical reaction for the determination of Kiapp values was carried at room temperature in a solid black Costar u-bottom 96-well polypropylene plate. In each well, recombinant CYP3A4 enzyme (5.5 nM or 8 nM, final concentration depending on the commercial source of the enzyme) was pre-incubated in the presence of the inhibitor for at least 30 minutes in the assay buffer. When pre-incubation was completed (˜30 min), the reaction was initiated by adding NADPH (200 uM, final concentration), and 7-benzyloxy-4-(trifluoromethyl)-coumarin (BFC) (5 uM, final concentration). The oxidation of the coumarin substrate was recorded by a 96-well plate reader POLARstar (BMG LABTECH, Offenburg, Germany).
The initial reaction velocities were measured during the first 5 min of the reaction when the release of the fluorescent product is linear with time, in the absence and in the presence of various concentrations of inhibitors. For non-partial & partial inhibitors, the Kiapp values were determined by using the equation for tight-binding inhibitor developed by Morrison, J F (Morrison J F. Biochim Biophys Acta. 1969, 185: 269-86) and by Szedlaseck S E et al. (Szedlascek, S. E., Ostafe, V., Serban, M., and Vlad, M.O. Biochem. J. 1988, 254:311-312), respectively.
The fluorescent substrate BFC was purchased from Sigma (St Louis, Mo.). Two commercial sources of recombinant enzymes were used in this study: recombinant CYP3A4−b5 enzyme (Baculosomes®) was purchased from Invitrogen (Carlsbad, Calif.) and the recombinant CYP3A4+b5 enzyme (Supersomes®) was purchased from BD Biosciences (Woburn, Mass.).

[3] = target: T1, CYP3A4; assay: Determination of IC50 against CYP3A4 by measurement of inhibition of testosterone metabolism (human liver microsomes, 6-β-OH-testosterone by LC-MS/MS); design: 0.1 mg/mL human liver microsomes; details: read-out: IC50 (Testo.)
Protocol: 2. Determination of IC50 Against CYP3A4 by Measurement of Inhibition of Testosterone Metabolism
as §1, with “25” for “2”, “testosterone,” for “midazolam,”, “against an” for “against”, “6-β-OH-testosterone” for “1-hydroxymidazolam”, “testosterone” for “midazolam”, “metabolite” for “metabolite.”
as §2, §3

[4] = Baculo. enzyme preparation, read-out: Kiapp (BFC, Baculo.)
[5] = Super. enzyme preparation, read-out: Kiapp (BFC, Super.)

| IC50 [1] [nM] | Ki [2, 4] [nM] | Ki [2, 5] [nM] | IC50 [3] [nM] | SMILES |
| --- | --- | --- | --- | --- |
| 390 | 538 | 662 | < 3 | CC1CCN(CC(C)(C)NC(=O)c2ccccc2S(=O)(=O)Nc2cccnc2)CC1 [Example 1, N-[1,1-dimethyl-2-(4-methylpiperidin-1-yl)ethyl]-2-[(pyridin-3-ylamino)sulfonyl]benzamide] |
| > 750 | 901 | 570 | > 750 | CC(C)(CN1CCCCC1)NC(=O)c1ccccc1S(=O)(=O)Nc1cccnc1 [Example 2, N-(1,1-dimethyl-2 piperidin-1-ylethyl)-2-[(pyridin-3-ylamino)sulfonyl]benzamide] |
| > 750 | 858 | > 1000 | > 750 | CC(C)(CN1CCCC1)NC(=O)c1ccccc1S(=O)(=O)Nc1cccnc1 [Example 3] |
| 52 | 167 | 43.6 | 96 | CC(C)(NC(=O)c1ccccc1S(=O)(=O)Nc1cccnc1)C1CC1 [Example 4, N-(1-cyclopropyl-1-methylethyl)-2-[(pyridin-3-ylamino)sulfonyl]benzamide] |
| 41 | 55.9 | 5.8 | 66 | O=C(NCc1ccccc1F)c1ccccc1S(=O)(=O)Nc1cccnc1 [Example 5, N-(2-fluorobenzyl)-2-[(pyridin-3-ylamino)sulfonyl]benzamide] |
| > 750 | > 1000 | > 1000 | > 750 | O=C(c1ccccc1S(=O)(=O)Nc1cccnc1)N1CC2(CCNCC2)C1 [Example 7, 2-(2,7-diazaspiro[3.5]non-2-ylcarbonyl)-N-pyridin-3-ylbenzenesulfonamide] |
| 63 | 460 | 44.6 | 67 | O=C(NC1CCCCC1)c1ccccc1S(=O)(=O)Nc1cccnc1 [Example 8, N-cyclohexyl-2-[(pyridin-3-ylamino)sulfonyl]benzamide] |
| 11 | 173 | 4 | 9 | O=C(NCc1ccc(F)cc1)c1ccccc1S(=O)(=O)Nc1cccnc1 [Example 9, N-(4-fluorobenzyl)-2-[(pyridin-3-ylamino)sulfonyl]benzamide] |
|  | 251 |  | 24 | O=C(c1ccccc1S(=O)(=O)Nc1cccnc1)N1CCN(c2ccc(F)cc2)CC1 [Example 13, 2-{[4-(4-fluorophenyl)piperazin-1-yl]carbonyl}-N-pyridin-3-ylbenzenesulfonamide] |
|  | 503 |  | 60 | CC(C)(C)NC(=O)c1ccccc1S(=O)(=O)Nc1cccnc1 [Example 14, N-(tert-butyl)-2-[(pyridin-3-ylamino)sulfonyl]benzamide] |
| 413 |  |  | > 750 | CC(C)(CNC(=O)c1ccccc1S(=O)(=O)Nc1cccnc1)N1CCOCC1 [Example 32, N-(2-methyl-2-morpholin-4-ylpropyl)-2-[(pyridin-3-ylamino)sulfonyl]benzamide] |
|  | 800 |  | 421 | CC(C)(CN1CCOCC1)NC(=O)c1ccccc1[S+]([O-])Cc1cccnc1 (stereo not shown) [Example 70, N-(1,1-dimethyl-2-morpholin-4-ylethyl)-2-[(pyridin-3-ylmethyl)sulfinyl]benzamide] |
| 18 | 43.9 | 5.9 |  | Cc1cncc(NS(=O)(=O)c2ccccc2C(=O)N(C)Cc2ccc(C(F)(F)F)cc2)c1 [Example 145, N-methyl-2-{[(5-methylpyridin-3-yl)amino]sulfonyl}-N-[4-(trifluoromethyl)benzyl]benzamide] |
| 11 | 54.6 | 8.6 |  | Cc1cncc(NS(=O)(=O)c2ccccc2C(=O)N(C)Cc2ccc(F)cc2)c1 [Example 146, N-(4-fluorobenzyl)-N-methyl-2-{[(5-methylpyridin-3-yl)amino]sulfonyl}benzamide] |
| 16 | 209 | 19.2 |  | COc1cncc(NS(=O)(=O)c2ccccc2C(=O)NCc2cc(F)ccc2F)c1 [Example 147, N-(2,5-difluorobenzyl)-2-{[(5-methoxypyridin-3-yl)amino]sulfonyl}benzamide] |
